Data as given in US5112834A, “Imidazole protectorant for the stomach and intestine” (BYK Gulden Lomberg Chemische Fabrik GmbH, priority 1987, dated 1992).
Read-outs that look alike come from different tables or passages of the source.

System: modified Shay rat
Assay: Antiulcerogenic and secretion-inhibiting action on the modified Shay rat (pylorus ligature plus oral acetylsalicylic acid)
Format: in vivo
Conditions: for Inhibition of acid secretion: Reduction in HCl secretion / Protective action on stomach: Reduction in lesion index: 4 hours; for ED50: Rattus norvegicus, 4 h, i.d.
Protocol: Ulcers are provoked in rats which have fasted for 24 hours (female, 180-200 g, 4 animals per cage on high grid) by pylorus ligature (under diethyl ether anaesthesia) and oral administration of 100 mg/10 ml/kg acetylsalicylic acid. The substances to be tested are administered intraduodenally (2,5 ml/kg) immediately following t[e pylorus ligature. The wound is closed by means of Michel clamps. 4 hours later, the animals are sacrificed under ether anaesthesia by atlas dislocation and the stomach is resected. The stomach is opened along the greater curvature and clamped on a cork sheet after first determining the amount of secreted gastric juice (volume) and subsequently its HCl content (titration with sodium hydroxide solution). Using a stereomicroscope at 10×magnification, the number and size (=diameter) of ulcers present are determined. The product of severity (according to the scale of points below) and number of ulcers serves as an individual lesion index. |Scale of points: | No ulcers 0 | Ulcer diameter | 0.1-1.4 mm | 1 | 1.5-2.4 mm | 2 | 2.5-3.4 mm | 3 | 3.5-4.4 mm | 4 | 4.5-5.4 mm | 5 | >5.5 mm 6 The reduction in the mean lesion index of each treated group compared with the control group (=100%) serves as a measure of the antiulcerogenic effect. The ED50 designates the dose which reduces the mean lesion index or the HCl secretion by 50% compared with the control.

[1] = 0.3 μmol/kg i.d. (intraduodenal)
[2] = 1.0 μmol/kg i.d. (intraduodenal)
[3] = 3.0 μmol/kg i.d. (intraduodenal)
[4] = 10.0 μmol/kg i.d. (intraduodenal)
[5] = 30.0 μmol/kg i.d. (intraduodenal)
[6] = dose (interpolated) which reduces the HCl secretion by 50% compared with control group, read-out: Inhibition of acid secretion: Approx. ED50
[7] = dose (interpolated) which reduces the lesion index by 50% compared with control group, read-out: Protective action on stomach: Approx. ED50
[8] = 0.6 μmol/kg i.d. (intraduodenal)
[9] = 1.5 μmol/kg i.d. (intraduodenal)
[10] = 2.0 μmol/kg i.d. (intraduodenal)
[11] = 6.0 μmol/kg i.d. (intraduodenal)
[12] = 0.1 μmol/kg i.d. (intraduodenal)

Structure (SMILES): Cc1nc2c(O[C@@H]3c4ccccc4C[C@H]3O)cccn2c1C (relative stereo) [Example 2]
- Inhibition of acid secretion: Reduction in HCl secretion [1]: -20%
- Protective action on stomach: Reduction in lesion index [1]: 25%
- Inhibition of acid secretion: Reduction in HCl secretion [2]: 23%
- Protective action on stomach: Reduction in lesion index [2]: 47%
- Inhibition of acid secretion: Reduction in HCl secretion [3]: 52%
- Protective action on stomach: Reduction in lesion index [3]: 81%
- Inhibition of acid secretion: Reduction in HCl secretion [4]: 47%
- Protective action on stomach: Reduction in lesion index [4]: 94%
- Inhibition of acid secretion: Reduction in HCl secretion [5]: 95%
- Protective action on stomach: Reduction in lesion index [5]: 100%
- ED50 [6]: ~4.27 µmol/kg
- ED50 [7]: ~0.84 µmol/kg

Structure (SMILES): Cc1nc2c(O[C@@H]3c4ccccc4C[C@H]3O)cccn2c1CC#N (relative stereo) [Example 4, 3-cyanomethyl-8-(2-(trans)-hydroxy-2,3-dihydro-1-indenyloxy)-2-methyl-imidazo[1,2-a]pyridine]
- Inhibition of acid secretion: Reduction in HCl secretion [1]: -26%
- Protective action on stomach: Reduction in lesion index [1]: 18%
- Inhibition of acid secretion: Reduction in HCl secretion [8]: 12%
- Protective action on stomach: Reduction in lesion index [8]: 33%
- Inhibition of acid secretion: Reduction in HCl secretion [2]: 22%
- Protective action on stomach: Reduction in lesion index [2]: 35%
- Inhibition of acid secretion: Reduction in HCl secretion [9]: 50%
- Protective action on stomach: Reduction in lesion index [9]: 94%
- Inhibition of acid secretion: Reduction in HCl secretion [10]: 51%
- Protective action on stomach: Reduction in lesion index [10]: 98%
- Inhibition of acid secretion: Reduction in HCl secretion [3]: 63%
- Protective action on stomach: Reduction in lesion index [3]: 93%
- Inhibition of acid secretion: Reduction in HCl secretion [11]: 73%
- Protective action on stomach: Reduction in lesion index [11]: 100%
- Inhibition of acid secretion: Reduction in HCl secretion [5]: 99%
- Protective action on stomach: Reduction in lesion index [5]: 100%
- ED50 [6]: ~1.95 µmol/kg
- ED50 [7]: ~1.04 µmol/kg

Structure (SMILES): Cc1nc2c(O[C@@H]3c4ccccc4C[C@H]3O)cccn2c1CO (relative stereo) [Example 8, 3-hydroxymethyl-8-(2-(trans)-hydroxy-2,3-dihydro-1-indenyloxy)-2-methyl-imidazo[1,2-a]pyridine]
- Inhibition of acid secretion: Reduction in HCl secretion [12]: 10%
- Protective action on stomach: Reduction in lesion index [12]: 13%
- Inhibition of acid secretion: Reduction in HCl secretion [1]: 19%
- Protective action on stomach: Reduction in lesion index [1]: 43%
- Inhibition of acid secretion: Reduction in HCl secretion [2]: 25%
- Protective action on stomach: Reduction in lesion index [2]: 47%
- Inhibition of acid secretion: Reduction in HCl secretion [3]: 20%
- Protective action on stomach: Reduction in lesion index [3]: 74%
- Inhibition of acid secretion: Reduction in HCl secretion [4]: 35%
- Protective action on stomach: Reduction in lesion index [4]: 94%
- Inhibition of acid secretion: Reduction in HCl secretion [5]: 98%
- Protective action on stomach: Reduction in lesion index [5]: 100%
- ED50 [6]: ~12.9 µmol/kg
- ED50 [7]: ~0.69 µmol/kg

Structure (SMILES): Cc1nc2c(O[C@@H]3c4ccccc4C[C@H]3O)cccn2c1N.Cl (relative stereo) [Example 11, 3-amino-8-(2-(trans)-hydroxy-2,3-dihydro-1-indenyloxy)-2-methyl-imidazo[1,2-a]pyridine-hydrochloride]
- Inhibition of acid secretion: Reduction in HCl secretion [2]: 16%
- Protective action on stomach: Reduction in lesion index [2]: 27%
- Inhibition of acid secretion: Reduction in HCl secretion [3]: 32%
- Protective action on stomach: Reduction in lesion index [3]: 71%
- Inhibition of acid secretion: Reduction in HCl secretion [4]: 67%
- Protective action on stomach: Reduction in lesion index [4]: 100%
- ED50 [6]: ~6.02 µmol/kg
- ED50 [7]: ~1.69 µmol/kg

Structure (SMILES): Cc1nc2c(O[C@@H]3c4ccc(F)cc4C[C@H]3O)cccn2c1CO (relative stereo) [Example 30, 8-(5-fluoro-2-(trans)-hydroxy-2,3-dihydro-1-indenyloxy)-3-hydroxymethyl-2-methyl-imidazo[1,2-a]pyridine]
- Inhibition of acid secretion: Reduction in HCl secretion [3]: 41%
- Protective action on stomach: Reduction in lesion index [3]: 86%
